Patent US20230151336A1, “STEM CELL DERIVED SINGLE-ROSETTE BRAIN ORGANOIDS AND RELATED USES THEROF” (The Regents of the University of Michigan, priority 2020, published 2023)

What was measured:
Format in all cases: cell-based, human
[1] = system: self-organizing single-rosette spheroids (SOSRS); test: SOSRS cell death and growth during dorsal differentiation
Procedure: iPSC lines were passaged using Accutase (Innovative cell) and replated onto Geltrex-coated (1:50 dilution in DMEM/F12) 12-well plates at 1.5-2×10^5 cells/well in mTeSR1 with 10 μM rho-kinase inhibitor (Y-27632; Tocris, 1254). The medium without the inhibitor was replaced daily until the cells reach 80-100% confluency. The medium was then changed to 3N (50:50 DMEM/F12:neurobasal with N2 and B27 supplements) (see, Shi, Y., et al., Nature Neuroscience 15, 477-486 (2012)) without vitamin A with 2 μM DMH1 (Tocris, 4126), 2 μM XAV939 (Cayman Chemical, 13596), and 10 μM SB431542 (Cayman Chemical, 13031) (4 mL of medium per well). 75% of this medium was changed daily with 1 μM cyclopamine (Cayman Chemical, 11321) added beginning on day 1. On day 4, the monolayer was cut into squares using the StemPro EZ passage tool. The squares were then washed once with PBS and incubated for 2 minutes with L7 hPSC passaging solution (Lonza). After aspirating the L7 solution, the squares were sprayed off the bottom with the same culture medium 1 mL of preconditioned culture media with a P1000 micropipette. An additional 2 mL of fresh culture medium with the 4 inhibitors was added for a final volume of 3 mL. Approximately 200 μL of resuspended squares were then transfer into the wells of 96-well plates preincubated at 37° C. for 20 minutes with 30 μL of 100% Geltrex solution in each well. Up to 16 wells can be made using one monolayer well. Higher densities will result in fusion between nearby SOSRS forming multi-rosette doublets or “strings”. After 48 hours, daily 50% media changes were performed. On day 6 overall (2 days after cutting), the four inhibitors were no longer added but replaced with the 3 μM CHIR99021. After 3-4 additional days of culture, the wells were washed once with PBS and incubated for 2 minutes with L7 solution. The organoids were individually removed using the STRIPPER (Cooper Surgical) with 275 μM tips and plated individually in the wells of a low-adherence U-bottom 96-well plate with 200 μL of 3N medium without vitamin A with 3 μM CHIR99021, BDNF (20 ng/mL), and NT3 (20 ng/mL). […]

ventral SOSRS = test: Ventral SOSRS patterning (immunostaining, size)
Procedure: For ventral SOSRS differentiation, no cyclopamine or CHIR99021 were used. After plating onto Geltrex, 1 μM SAG and 2 μM XAV939 were added the culture media for 1 week. All other procedures were performed identically (FIG. 5).
SOSRS imaged before day 11 were grown on Nunc™ Lab-Tek™ III 8-well chamber slides (Thermo Scientific) and were fixed in paraformaldehyde for 30 min at room temperature (RT). After permeabilization with 0.2% Triton-X 100 for 20 min at RT, cells were incubated in PBS containing 5% normal goat serum with 1% BSA and 0.05% Triton-X100 for 1 h at RT. Older SOSRS were fixed for 30 minutes in suspension and incubated in 30% sucrose overnight at 4 C followed by embedding in TFM medium and freezing on dry ice. The blocks were sectioned on a Cryostat with 20 μM section thickness. All samples were incubated in primary antibody overnight (see Supplemental Table 2 for antibodies and dilutions) in the same blocking buffer at 4° C., washed 4 times in PBS with 0.05% Tween-20 (PBST), and incubated for 90 min with secondary antibody. Cells were washed 3 times in PBST and incubated with bisbenzimide for 5 min. After additional PBS washes, coverslips were mounted on slides with Glycergel mounting medium (Agilent Dako). Images were obtained on a Leica SP5 upright DMI 6000 confocal microscope. […]

[2] = system: self-organizing single-rosette spheroids (SOSRS); test: SOSRS neuroteratogen screening (structural read-out of lumen/neurulation)
Procedure: iPSC lines were passaged using Accutase (Innovative cell) and replated onto Geltrex-coated (1:50 dilution in DMEM/F12) 12-well plates at 1.5-2×10^5 cells/well in mTeSR1 with 10 μM rho-kinase inhibitor (Y-27632; Tocris, 1254). The medium without the inhibitor was replaced daily until the cells reach 80-100% confluency. The medium was then changed to 3N (50:50 DMEM/F12:neurobasal with N2 and B27 supplements) (see, Shi, Y., et al., Nature Neuroscience 15, 477-486 (2012)) without vitamin A with 2 μM DMH1 (Tocris, 4126), 2 μM XAV939 (Cayman Chemical, 13596), and 10 μM SB431542 (Cayman Chemical, 13031) (4 mL of medium per well). 75% of this medium was changed daily with 1 μM cyclopamine (Cayman Chemical, 11321) added beginning on day 1. On day 4, the monolayer was cut into squares using the StemPro EZ passage tool. The squares were then washed once with PBS and incubated for 2 minutes with L7 hPSC passaging solution (Lonza). After aspirating the L7 solution, the squares were sprayed off the bottom with the same culture medium 1 mL of preconditioned culture media with a P1000 micropipette. An additional 2 mL of fresh culture medium with the 4 inhibitors was added for a final volume of 3 mL. Approximately 200 μL of resuspended squares were then transfer into the wells of 96-well plates preincubated at 37° C. for 20 minutes with 30 μL of 100% Geltrex solution in each well. Up to 16 wells can be made using one monolayer well. Higher densities will result in fusion between nearby SOSRS forming multi-rosette doublets or “strings”. After 48 hours, daily 50% media changes were performed. On day 6 overall (2 days after cutting), the four inhibitors were no longer added but replaced with the 3 μM CHIR99021. After 3-4 additional days of culture, the wells were washed once with PBS and incubated for 2 minutes with L7 solution. The organoids were individually removed using the STRIPPER (Cooper Surgical) with 275 μM tips and plated individually in the wells of a low-adherence U-bottom 96-well plate with 200 μL of 3N medium without vitamin A with 3 μM CHIR99021, BDNF (20 ng/mL), and NT3 (20 ng/mL). Ideal diameters for picking the SOSRS are between 250-300 μM. Two days later half-fold media changes with 3N with vitamin A, BDNF (20 ng/mL), and NT3 (20 ng/mL) and repeated every other day. After 35 days of differentiation, 3N media with vitamin A without neurotrophic factors (BDNF and NT3) is used for half-fold media changes every other day. Around this time, SOSRS are transferred from the low-adherence 96-well plate to a low-adherence 24 well plate for a necessary increase in media volume due to SOSRS size.
SOSRS imaged before day 11 were grown on Nunc™ Lab-Tek™ III 8-well chamber slides (Thermo Scientific) and were fixed in paraformaldehyde for 30 min at room temperature (RT). After permeabilization with 0.2% Triton-X 100 for 20 min at RT, cells were incubated in PBS containing 5% normal goat serum with 1% BSA and 0.05% Triton-X100 for 1 h at RT. Older SOSRS were fixed for 30 minutes in suspension and incubated in 30% sucrose overnight at 4 C followed by embedding in TFM medium and freezing on dry ice. The blocks were sectioned on a Cryostat with 20 μM section thickness. All samples were incubated in primary antibody overnight (see Supplemental Table 2 for antibodies and dilutions) in the same blocking buffer at 4° C., washed 4 times in PBS with 0.05% Tween-20 (PBST), and incubated for 90 min with secondary antibody. Cells were washed 3 times in PBST and incubated with bisbenzimide for 5 min. After additional PBS washes, coverslips were mounted on slides with Glycergel mounting medium (Agilent Dako). Images were obtained on a Leica SP5 upright DMI 6000 confocal microscope.
This 3D model of human neurulation allowed us to test known neuroteratogens that block a specific pathway necessary for proper neural tube formation. These were the rho-kinase inhibitor, Y-27632, and the non-muscle myosin inhibitor, blebbistatin^26, 27. […]

[3] = addition from day 6-10, 3 μM, FIG. 2

| Compound | apical end-feet surface areas (ZO-1) [2] | lumen circularity [2] | lumen/total area [2] | further results |
| --- | --- | --- | --- | --- |
| Cc1c[nH]c(-c2cnc(NCCNc3ccc(C#N)cn3)nc2-c2ccc(Cl)cc2Cl)n1 [CHIR99021] |  |  |  | SOSRS growth [1, 3]: grow more rapidly; cell death around SOSRS perimeter [1, 3]: blocked the majority of cell death; PAX6 positive cells ([1]; pulse day 6-10, FIGS. 1i and j): rapid expansion |
| CNC1CCC(N(Cc2cccc(-c3ccncc3)c2)C(=O)c2sc3ccccc3c2Cl)CC1 (stereo not drawn) [SAG] |  |  |  | NKX2.1/FOXG1 positive cells (ventral SOSRS; one-month SOSRS, SAG instead of CHIR99021 from day 7 to day 14, XAV939 continued): ~100% |
| CC(/C=C/C(=O)NO)=C\[C@@H](C)C(=O)c1ccc(N(C)C)cc1 [TSA] |  |  |  | replication of the VPA effect on ratio of lumen area to SOSRS area [2]: not replicated |
| Oc1nc(-c2ccc(C(F)(F)F)cc2)nc2c1CSCC2 [XAV939, 3,5,7,8-Tetrahydro-2-[4-(trifluoromethyl)phenyl]-4H-thiopyrano[4,3-d]pyri-midin-4-one] |  |  |  | SOSRS size and MGE specification (ventral SOSRS; continued day 7 to day 14 with SAG, data not shown): increase |
| C[C@@H](N)[C@H]1CC[C@H](C(=O)Nc2ccncc2)CC1 [Y-27632] | increased | decreased | increased |  |
| Cc1ccc2c(c1)C(=O)C1(O)CCN(c3ccccc3)C1=N2 (stereo not drawn) [blebbistatin] | increased | decreased | increased |  |
